Measurements taken from the supplement of paper PMC13380429.

Assays:
[1] = test system: A549-ACE2 infected with SARS-CoV-2; assay: cell count relative to DMSO; higher = less toxic; settings: 24 h
[2] = test system: A549-ACE2 infected with SARS-CoV-2; assay: morphology score (similarity to uninfected cells); higher = more like uninfected cells; settings: 24 h
[3] = test system: Caco-2; assay: cell viability relative to DMSO; higher = less toxic; settings: 72 h
[4] = test system: Vero E6; assay: as above; settings: 72 h
[5] = test system: HepG2; assay: as above; settings: 72 h
[6] = test system: Calu-3; assay: as above; settings: 72 h
[7] = test system: U2OS; assay: as above; settings: 72 h
[8] = test system: Caco-2; assay: drug sensitivity score (DSS) for viability; higher = more toxic; extreme values may be limits of the assay; settings: 72 h
[9] = test system: Vero E6; assay: as above; settings: 72 h
[10] = test system: HepG2; assay: as above; settings: 72 h
[11] = test system: Calu-3; assay: as above; settings: 72 h
[12] = test system: U2OS; assay: as above; settings: 72 h
[13] = test system: Caco-2; assay: relative viability EC50 (midpoint between 100% and the lowest measured viability); higher = less toxic; settings: 72 h
[14] = test system: Vero E6; assay: as above; settings: 72 h
[15] = test system: HepG2; assay: as above; settings: 72 h
[16] = test system: Calu-3; assay: as above; settings: 72 h
[17] = test system: U2OS; assay: as above; settings: 72 h
[18] = test system: A549-ACE2; assay: drug-induced phospholipidosis relative to tamoxifen; higher = more phospholipidosis
[19] = test system: A549-ACE2 infected with SARS-CoV-2; assay: SARS-CoV-2 infection rate relative to DMSO; higher = more infection; settings: 24 h
[20] = test system: A549-ACE2; assay: phospholipidosis EC50; higher = less potent phospholipidosis inducer

CNC(=O)c1cc(Oc2ccc(NC(=O)Nc3cc(C(C)(C)C)nn3-c3ccc4ncccc4c3)c(F)c2)ccn1 [rebastinib]
cell count ([1]; 0.1 µM): 104% | cell count ([1]; 0.3 µM): 103% | cell count ([1]; 1 µM): 102% | cell count ([1]; 3 µM): 96% | morphology score ([2]; 0.1 µM): 0.31 | morphology score ([2]; 0.3 µM): 0.24 | morphology score ([2]; 1 µM): 0.22 | morphology score ([2]; 3 µM): 0.12 | cell viability ([3]; 1 nM): 98.4% | cell viability ([3]; 10 nM): 89.9% | cell viability ([3]; 100 nM): 95.4% | cell viability ([3]; 1000 nM): 114% | cell viability ([3]; 10000 nM): 30% | cell viability ([4]; 1 nM): 98.2% | cell viability ([4]; 10 nM): 96.8% | cell viability ([4]; 100 nM): 102% | cell viability ([4]; 1000 nM): 112% | cell viability ([4]; 10000 nM): 9.9% | cell viability ([5]; 1 nM): 104% | cell viability ([5]; 10 nM): 102% | cell viability ([5]; 100 nM): 108% | cell viability ([5]; 1000 nM): 28.6% | cell viability ([5]; 10000 nM): 6.1% | cell viability ([6]; 1 nM): 100% | cell viability ([6]; 10 nM): 97.5% | cell viability ([6]; 100 nM): 105% | cell viability ([6]; 1000 nM): 90.8% | cell viability ([6]; 10000 nM): 42.6% | cell viability ([7]; 1 nM): 97.9% | cell viability ([7]; 10 nM): 96.4% | cell viability ([7]; 100 nM): 97% | cell viability ([7]; 1000 nM): 108% | cell viability ([7]; 10000 nM): 9.6% | drug sensitivity score [8]: 3.1 | drug sensitivity score [9]: 4.3 | drug sensitivity score [10]: 13.3 | drug sensitivity score [11]: 4.6 | drug sensitivity score [12]: 4.4 | relative viability EC50 [13]: 3.94 µM | relative viability EC50 [14]: 3.74 µM | relative viability EC50 [15]: 638 nM | relative viability EC50 [16]: 1940 nM | relative viability EC50 [17]: 3.62 µM | drug-induced phospholipidosis ([18]; 0.3 µM, 24 h): -0.9% | drug-induced phospholipidosis ([18]; 0.3 µM, 48 h): -0.69% | drug-induced phospholipidosis ([18]; 0.3 µM, 72 h): 0.586% | drug-induced phospholipidosis ([18]; 0.833333 µM, 24 h): -2.36% | drug-induced phospholipidosis ([18]; 0.833333 µM, 48 h): -2.5% | drug-induced phospholipidosis ([18]; 0.833333 µM, 72 h): -3.51% | drug-induced phospholipidosis ([18]; 3.33333 µM, 24 h): -1.54% | drug-induced phospholipidosis ([18]; 3.33333 µM, 48 h): -1.43% | drug-induced phospholipidosis ([18]; 3.33333 µM, 72 h): -2.2% | drug-induced phospholipidosis ([18]; 6.66667 µM, 24 h): -1.91% | drug-induced phospholipidosis ([18]; 6.66667 µM, 48 h): -0.4% | drug-induced phospholipidosis ([18]; 6.66667 µM, 72 h): 1.53% | drug-induced phospholipidosis ([18]; 10 µM, 24 h): -2.66% | drug-induced phospholipidosis ([18]; 10 µM, 48 h): 0.77% | drug-induced phospholipidosis ([18]; 10 µM, 72 h): 5.87% | SARS-CoV-2 infection rate ([19]; 0.1 µM): 97% | SARS-CoV-2 infection rate ([19]; 0.3 µM): 92% | SARS-CoV-2 infection rate ([19]; 1 µM): 92% | SARS-CoV-2 infection rate ([19]; 3 µM): 95%

OCc1cc(C(O)CNCCCCCCOCCCCc2ccccc2)ccc1O (centres undefined) [salmeterol]
cell count ([1]; 0.3 µM): 101% | cell count ([1]; 3 µM): 108% | cell count ([1]; 10 µM): 121% | cell count ([1]; 30 µM): 102% | morphology score ([2]; 0.3 µM): -0.02 | morphology score ([2]; 3 µM): 0.15 | morphology score ([2]; 10 µM): 0.89 | morphology score ([2]; 30 µM): 0.58 | cell viability ([3]; 1 nM): 97.4% | cell viability ([3]; 10 nM): 96.6% | cell viability ([3]; 100 nM): 95.1% | cell viability ([3]; 1000 nM): 92.7% | cell viability ([3]; 10000 nM): 86.6% | cell viability ([4]; 1 nM): 101% | cell viability ([4]; 10 nM): 106% | cell viability ([4]; 100 nM): 101% | cell viability ([4]; 1000 nM): 107% | cell viability ([4]; 10000 nM): 97.5% | cell viability ([5]; 1 nM): 107% | cell viability ([5]; 10 nM): 107% | cell viability ([5]; 100 nM): 94% | cell viability ([5]; 1000 nM): 105% | cell viability ([5]; 10000 nM): 70.8% | cell viability ([6]; 1 nM): 112% | cell viability ([6]; 10 nM): 97.4% | cell viability ([6]; 100 nM): 100% | cell viability ([6]; 1000 nM): 99% | cell viability ([6]; 10000 nM): 98.9% | cell viability ([7]; 1 nM): 103% | cell viability ([7]; 10 nM): 97.7% | cell viability ([7]; 100 nM): 99.9% | cell viability ([7]; 1000 nM): 99.3% | cell viability ([7]; 10000 nM): 95.2% | drug sensitivity score [8]: 0.1 | drug sensitivity score [9]: 0 | drug sensitivity score [10]: 1 | drug sensitivity score [11]: 0 | drug sensitivity score [12]: 0 | relative viability EC50 [13]: > 10 µM | relative viability EC50 [14]: > 10 µM | relative viability EC50 [16]: > 10000 nM | relative viability EC50 [17]: > 10 µM | drug-induced phospholipidosis ([18]; 0.3 µM, 24 h): -0.12% | drug-induced phospholipidosis ([18]; 0.3 µM, 48 h): 2.35% | drug-induced phospholipidosis ([18]; 0.3 µM, 72 h): 3.27% | drug-induced phospholipidosis ([18]; 0.833333 µM, 24 h): -0.14% | drug-induced phospholipidosis ([18]; 0.833333 µM, 48 h): 2.68% | drug-induced phospholipidosis ([18]; 0.833333 µM, 72 h): 1.57% | drug-induced phospholipidosis ([18]; 3.33333 µM, 24 h): 9.06% | drug-induced phospholipidosis ([18]; 3.33333 µM, 48 h): 8.06% | drug-induced phospholipidosis ([18]; 3.33333 µM, 72 h): 6.45% | drug-induced phospholipidosis ([18]; 6.66667 µM, 24 h): 65.1% | drug-induced phospholipidosis ([18]; 6.66667 µM, 48 h): 52.9% | drug-induced phospholipidosis ([18]; 6.66667 µM, 72 h): 37.9% | drug-induced phospholipidosis ([18]; 10 µM, 24 h): 85.7% | drug-induced phospholipidosis ([18]; 10 µM, 48 h): 83.5% | drug-induced phospholipidosis ([18]; 10 µM, 72 h): 80.7% | drug-induced phospholipidosis ([18]; 30 µM, 24 h): 80.3% | drug-induced phospholipidosis ([18]; 30 µM, 48 h): 117% | drug-induced phospholipidosis ([18]; 30 µM, 72 h): 130% | SARS-CoV-2 infection rate ([19]; 0.3 µM): 107% | SARS-CoV-2 infection rate ([19]; 3 µM): 91% | SARS-CoV-2 infection rate ([19]; 10 µM): 19% | SARS-CoV-2 infection rate ([19]; 30 µM): 17% | phospholipidosis EC50 ([20]; 24 h): 5.09 µM | phospholipidosis EC50 ([20]; 48 h): 7.38 µM | phospholipidosis EC50 ([20]; 72 h): 8.86 µM
